# Results published in patent US20130109682A1, “CYCLIC ETHER COMPOUNDS USEFUL AS KINASE INHIBITORS” (NOVARTIS AG, priority 2010, published 2013).
# Tests used:
# PIM1 = PIM1 (Homo sapiens, UniProt P11309); assay: KinaseGlo Pim1 ATP depletion assay; assay type: biochemical
# Procedure: KinaseGlo Pim1 ATP Depletion Assay
# The activity of PIM1 is measured using a luciferase-luciferin based ATP detection reagent to quantify ATP depletion resulting from kinase-catalyzed phosphoryl transfer to a peptide substrate. Compounds to be tested are dissolved in 100% DMSO and directly distributed into white 384-well plates at 0.5 μA per well. To start the reaction, 10 μA of 5 nM Pim1 kinase and 80 μM BAD peptide (RSRHSSYPAGT-OH) in assay buffer (50 mM HEPES pH 7.5, 5 mM MgCl2, 1 mM DTT, 0.05% BSA) is added into each well. After 15 minutes, 10 μl of 40 μM ATP in assay buffer is added. Final assay concentrations are 2.5 nM PIM1, 20 μM ATP, 40 μM BAD peptide and 2.5% DMSO. The reaction is performed until approximately 50% of the ATP is depleted, then stopped with the addition of 20 μA KinaseGlo Plus (Promega Corporation) solution. The stopped reaction is incubated for 10 minutes and the remaining ATP detected via luminescence on the Victor2 (Perkin Elmer). […] IC50, the half maximal inhibitory concentration, represents the concentration of a test compound that is required for 50% inhibition of its target in vitro.
# PIM2 = PIM2 (Homo sapiens, UniProt Q9P1W9); assay: KinaseGlo Pim2 ATP depletion assay; assay type: biochemical
# Procedure: KinaseGlo Pim2 ATP Depletion Assay
# The activity of PIM2 is measured using a luciferase-luciferin based ATP detection reagent to quantify ATP depletion resulting from kinase-catalyzed phosphoryl transfer to a peptide substrate. Compounds to be tested are dissolved in 100% DMSO and directly distributed into white 384-well plates at 0.5 piper well. To start the reaction, 10 μl of 10 nM Pim2 kinase and 20 μM BAD peptide (RSRHSSYPAGT-OH) in assay buffer (50 mM HEPES pH 7.5, 5 mM MgCl2, 1 mM DTT, 0.05% BSA) is added into each well. After 15 minutes, 10 μl of 8 μM ATP in assay buffer is added. Final assay concentrations are 5 nM PIM2, 4 μM ATP, 10 μM BAD peptide and 2.5% DMSO. The reaction is performed until approximately 50% of the ATP is depleted, then stopped with the addition of 20 μl KinaseGlo Plus (Promega Corporation) solution. The stopped reaction is incubated for 10 minutes and the remaining ATP detected via luminescence on the Victor2 (Perkin Elmer).
# PIM3 = PIM3 (Homo sapiens, UniProt Q86V86); assay: KinaseGlo Pim3 ATP depletion assay; assay type: biochemical
# Procedure: KinaseGlo Pim3 ATP Depletion Assay
# The activity of PIM3 is measured using a luciferase-luciferin based ATP detection reagent to quantify ATP depletion resulting from kinase-catalyzed phosphoryl transfer to a peptide substrate. Compounds to be tested are dissolved in 100% DMSO and directly distributed into white 384-well plates at 0.5 μl per well. To start the reaction, 10 μl of 10 nM Pim3 kinase and 200 μM BAD peptide (RSRHSSYPAGT-OH) in assay buffer (50 mM HEPES pH 7.5, 5 mM MgCl2, 1 mM DTT, 0.05% BSA) is added into each well. After 15 minutes, 10 μl of 80 μM ATP in assay buffer is added. Final assay concentrations are 5 nM […], 40 μM ATP, 100 μM BAD peptide and 2.5% DMSO. The reaction is performed until approximately 50% of the ATP is depleted, then stopped by the addition of 20 μl KinaseGlo Plus (Promega Corporation) solution. The stopped reaction is incubated for 10 minutes and the remaining ATP detected via luminescence on the Victor2 (Perkin Elmer).
# GSK3β = GSK3β (Homo sapiens, UniProt P49841); assay: GSK3β ATP depletion assay; assay type: biochemical; details: read-out: GSK3b IC50
# Procedure: GSK3β ATP Depletion Assay
# The activity of GSK3β is measured using a luciferase-luciferin based ATP detection reagent to quantify ATP depletion resulting from kinase-catalyzed phosphoryl transfer to a peptide substrate. Compounds to be tested are dissolved in 100% DMSO and directly distributed into white 384-well plates at 0.5 μl per well. To start the reaction, 10 μl of 10 nM GSK3B kinase and 20 μM biotinylated CREB peptide ([…](pS)YR-NH2) in assay buffer (50 mM TRIS pH 7.5, 15 mM MgCl2, 1 mM DTT, 0.1% BSA) is added into each well. After 15 minutes, 10 μl of 2 μM ATP in assay buffer is added. Final assay concentrations are 5 nM GSK3B, […], 10 μM b-CREB peptide and 2.5% DMSO. The reaction is performed until approximately 50% of the ATP is depleted, then stopped with the addition of 20 μl KinaseGlo (Promega Corporation) solution. The stopped reaction is incubated for 10 minutes and the remaining ATP is detected via luminescence on the Victor2 (Perkin Elmer).
# [1] = system: KMS11 (human myeloma cell line); assay: Cell proliferation assay (CellTiter-Glo), KMS11; assay type: cell-based; details: KMS11-Luc cells
# Procedure: KMS11 (human myeloma cell line), were cultured in IMDM supplemented with 10% FBS, sodium pyruvate and antibiotics. Cells were plated in the same medium at a density of 2000 cells per well into 96 well tissue culture plates, with outside wells vacant, on the day of assay. MMl.s (human myeloma cell line), were cultured in RPMI1640 supplemented with 10% FBS, sodium pyruvate and antibiotics. Cells were plated in the same medium at a density of 5000 cells per well into 96 well tissue culture plates, with outside wells vacant, on the day of assay.
# Test compounds supplied in DMSO were diluted into DMSO at 500 times the desired final concentrations before dilution into culture media to 2 times final concentrations. Equal volumes of 2× compounds were added to the cells in 96 well plates and incubated at 37° C. for 3 days.
# After 3 days plates were equilibrated to room temperature and equal volume of CellTiter-Glow Reagent (Promega) was added to the culture wells. The plates were agitated briefly and luminescent signal was measured with luminometer.
# Using the procedures of Cell Proliferation Assay, the EC50 concentration of indicated compounds of the examples in were determined in KMS11 cells as shown in Table 4.
# Chain of GSK3β (P49841 whole entry, species assumed): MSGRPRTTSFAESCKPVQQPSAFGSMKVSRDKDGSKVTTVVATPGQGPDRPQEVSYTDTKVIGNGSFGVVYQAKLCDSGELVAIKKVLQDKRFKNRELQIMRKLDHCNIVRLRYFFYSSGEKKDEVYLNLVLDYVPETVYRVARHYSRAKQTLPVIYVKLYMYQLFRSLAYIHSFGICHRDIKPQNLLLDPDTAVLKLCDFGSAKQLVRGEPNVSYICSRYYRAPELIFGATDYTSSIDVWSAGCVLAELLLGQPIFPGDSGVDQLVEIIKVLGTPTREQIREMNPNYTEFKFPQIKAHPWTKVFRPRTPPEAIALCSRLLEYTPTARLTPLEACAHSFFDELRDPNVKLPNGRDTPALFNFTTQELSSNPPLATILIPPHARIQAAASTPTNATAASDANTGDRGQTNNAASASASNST
# Chain of PIM2 (Q9P1W9 whole entry): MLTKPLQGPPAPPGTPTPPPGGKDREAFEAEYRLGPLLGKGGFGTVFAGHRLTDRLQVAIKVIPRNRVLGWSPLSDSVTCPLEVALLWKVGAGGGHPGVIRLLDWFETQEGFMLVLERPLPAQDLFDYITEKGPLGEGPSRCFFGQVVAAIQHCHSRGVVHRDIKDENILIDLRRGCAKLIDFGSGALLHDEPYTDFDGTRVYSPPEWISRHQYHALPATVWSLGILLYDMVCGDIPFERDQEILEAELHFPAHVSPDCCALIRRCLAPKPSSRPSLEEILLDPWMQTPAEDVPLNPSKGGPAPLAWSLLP
# Chain of PIM1 (P11309 whole entry): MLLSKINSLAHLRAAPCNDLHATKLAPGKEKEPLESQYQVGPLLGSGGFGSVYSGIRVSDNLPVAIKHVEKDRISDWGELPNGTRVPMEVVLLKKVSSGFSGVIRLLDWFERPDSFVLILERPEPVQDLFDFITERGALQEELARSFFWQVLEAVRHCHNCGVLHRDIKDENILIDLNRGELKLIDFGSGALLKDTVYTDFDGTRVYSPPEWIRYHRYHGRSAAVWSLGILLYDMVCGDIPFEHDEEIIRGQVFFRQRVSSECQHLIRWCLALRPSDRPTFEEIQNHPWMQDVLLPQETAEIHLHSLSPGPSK
Structure (SMILES),IC50 (PIM1) [nM],IC50 (PIM2) [nM],IC50 (PIM3) [nM],IC50 (GSK3β) [nM],"EC50 ([1]; Homo sapiens, KMS-11) [nM]",EC50 [1] [nM]
"C[C@@H]1O[C@H](c2ccncc2NC(=O)c2csc(-c3c(F)cccc3F)n2)[C@@H](F)[C@H](O)[C@@]1(C)O (stereo in doubt) [Example 70, 2-(2,6-difluorophenyl)-N-(4-((2R,3S,4R,5R,6S)-3-fluoro-4,5-dihydroxy-5,6-dimethyltetrahydro-2H-pyran-2-yl)pyridin-3-yl)thiazole-4-carboxamide]",1,323,19,331,> 10000,–
"NC(=O)[C@H]1O[C@@H](c2ccncc2NC(=O)c2ccc(F)c(-c3c(F)cccc3F)n2)C[C@@H](O)[C@@H]1O [Example 141, N-(4-((2R,4R,5S,6S)-6-carbamoyl-4,5-dihydroxytetrahydro-2H-pyran-2-yl)pyridin-3-yl)-6-(2,6-difluorophenyl)-5-fluoropicolinamide]",181,720,94,3360,> 10000,–
"CCC[C@H]1O[C@@H](c2ccncc2NC(=O)c2nc(-c3c(F)cccc3F)ncc2N)C[C@@H](O)[C@@H]1O [Example 169, 5-amino-2-(2,6-difluorophenyl)-N-(4-((2R,4R,5S,6R)-4,5-dihydroxy-6-propyltetrahydro-2H-pyran-2-yl)pyridin-3-yl)pyrimidine-4-carboxamide]",14.4,9.3,13.2,1660,> 10000,–
"CC[C@]1(O)[C@H](O)C[C@H](c2ccncc2NC(=O)c2nc(-c3ccncc3F)ccc2N)O[C@@H]1C [Example 157, 5-amino-N-(4-((2R,4R,5S,6R)-5-ethyl-4,5-dihydroxy-6-methyltetrahydro-2H-pyran-2-yl)pyridin-3-yl)-3′-fluoro-2,4′-bipyridine-6-carboxamide]",8,34.6,8.1,7.9,9630,–
"N#CC[C@H]1O[C@@H](c2ccncc2NC(=O)c2nc(-c3c(F)cccc3F)c(F)cc2N)C[C@@H](O)[C@@H]1O [Example 152, 3-amino-N-(4-((2R,4R,5S,6R)-6-(cyanomethyl)-4,5-dihydroxytetrahydro-2H-pyran-2-yl)pyridin-3-yl)-6-(2,6-difluorophenyl)-5-fluoropicolinamide]",1.3,5.4,2.3,450,–,> 10000
"C[C@H]1O[C@@H](c2ccncc2NC(=O)c2nc(-c3nccs3)ccc2N)C[C@@H](O)[C@]1(C)O [Example 147, 3-amino-N-(4-((2R,4R,5S,6R)-4,5-dihydroxy-5,6-dimethyltetrahydro-2H-pyran-2-yl)pyridin-3-yl)-6-(thiazol-2-yl)picolinamide]",17.4,71.3,18.5,1320,> 10000,–
"CC[C@]1(O)[C@H](O)C[C@H](c2ccncc2NC(=O)c2c[nH]cc(-c3ccccc3)c2=O)O[C@@H]1C [Example 179, N-(4-((2R,4R,5S,6R)-5-ethyl-4,5-dihydroxy-6-methyltetrahydro-2H-pyran-2-yl)pyridin-3-yl)-4-oxo-5-phenyl-1,4-dihydropyridine-3-carboxamide]",259,3080,132,2690,> 10000,–
"C[C@H]1O[C@@H](c2ccncc2NC(=O)c2cccc(-c3ccccc3F)n2)C[C@@H](O)[C@]1(C)O [Example 92, N-(4-((2R,4R,5S,6R)-4,5-dihydroxy-5,6-dimethyltetrahydro-2H-pyran-2-yl)pyridin-3-yl)-6-(2-fluorophenyl)picolinamide]",1,16,2,125,> 10000,–
"C=C[C@H]1OC(c2ccncc2NC(=O)c2nc(-c3ccccc3F)c(F)cc2N)=C[C@@H](O)[C@@H]1O [Example 24, 3-amino-N-(4-((2R,3S,4R)-3,4-dihydroxy-2-vinyl-3,4-dihydro-2H-pyran-6-yl)pyridin-3-yl)-5-fluoro-6-(2-fluorophenyl)picolinamide]",1,7,4,177,7370,–
